Data on eight compounds can be found in PubChem BioAssay (NCI).

Where “and” joins values, the source holds several entries; their conditions need not be identical. Equal entries are not always repeated.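 Compound exposure: 48 hours, 5 concentrations, 96-well plates. Here, GI50 denotes the concentration required for 50% inhibition of growth. TGI is the concentration that stops growth completely.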 Some results are limits rather than exact numbers.

Test systems include 786-0 renal; A498 renal; HS 578T breast; NCI-H226 lung; PC-3 prostate; SK-MEL-28 melanoma; SNB-75 CNS; T-47D breast; OVCAR-4 ovarian; EKVX NSCLC.
Test in all cases: NCI tumour cell line growth inhibition, 48 h

Turning to `COc1cc(-c2nc3sc4c(c3c(=O)[nH]2)CCCCCC4)cc(OC)c1OC`, the GI50 with 786-0 renal is 1.46 µM; in the experiment on A498 renal it was 0.694 µM; with HS 578T breast, 0.922 µM; with NCI-H226 lung, 3.6 µM; in the experiment on PC-3 prostate it was 1.5 µM; in the experiment on SK-MEL-28 melanoma it was 1.95 µM. The GI50 in the experiment with SNB-75 CNS is 0.701 µM; with T-47D breast it was 1.4 µM. In addition, the TGI in the experiment on 786-0 renal was 23.2 µM; in the experiment on A498 renal, 3.17 µM; in the experiment on HS 578T breast, 9.76 µM; in the experiment with NCI-H226 lung, above 33.2 µM; with PC-3 prostate, above 33.2 µM; in the experiment with SK-MEL-28 melanoma it was above 33.2 µM. Besides, the figures for the TGI in the experiment with SNB-75 CNS and in the experiment with T-47D breast were 2.52 µM and above 33.2 µM, respectively.

Turning to `N#CC1=C(N)NC(=O)NC12Nc1ccccc1S2` (stereo not given), the GI50 is 19.4 µM with 786-0 renal; 16.5 µM in the experiment on A498 renal; 25.5 µM in the experiment on HS 578T breast; 14.4 µM in the experiment on NCI-H226 lung; 43.4 µM with OVCAR-4 ovarian; 28 µM in the experiment on PC-3 prostate. Also, the GI50 is 26.7 µM in the experiment on SK-MEL-28 melanoma, 51 µM in the experiment with SNB-75 CNS and 26.7 µM in the experiment with T-47D breast. For the same compound, the TGI in the experiment on 786-0 renal is 49.6 µM; in the experiment on A498 renal, 36.8 µM; in the experiment with HS 578T breast, above 70.4 µM; in the experiment on NCI-H226 lung, 36.9 µM; in the experiment with OVCAR-4 ovarian, above 100 µM; with PC-3 prostate, above 57.9 µM. For the same compound, the TGI with SK-MEL-28 melanoma was above 70.3 µM; in the experiment with SNB-75 CNS, above 100 µM; with T-47D breast, above 100 µM.

As to `CO[C@@H]1/C=C(C)/C=C/[C@@H](C)/C=C(\C)C(=O)OC(/C(C)=C/C=C(\C)CNC(=O)[C@H](CO)NC=O)[C@@H](C)/C=C/C=C/[C@H](OC)CC/C=C(C)/C=C/C1` (stereo not given in full), the GI50 is below 0.005 µM in the experiment with 786-0 renal; 5.56 µM in the experiment on EKVX NSCLC; below 0.005 µM with HS 578T breast; below 0.005 µM in the experiment on NCI-H226 lung; below 0.005 µM with OVCAR-4 ovarian; below 0.005 µM with PC-3 prostate. The results for the GI50 with SK-MEL-28 melanoma, with SNB-75 CNS and in the experiment with T-47D breast were 0.00843 µM, 0.242 µM and 0.0243 µM, respectively. Besides, the TGI in the experiment on 786-0 renal is 0.322 µM; with EKVX NSCLC, 15.6 µM; with HS 578T breast it was 24.9 µM; in the experiment on NCI-H226 lung it was 0.221 µM; in the experiment on OVCAR-4 ovarian, above 50 µM; with PC-3 prostate, 6.91 µM. Besides, the values for the TGI in the experiment with SK-MEL-28 melanoma, in the experiment on SNB-75 CNS and in the experiment on T-47D breast were 11.4 µM, above 25.8 µM and 16.8 µM, respectively.

For `CN1CCN(Cc2ccc(NC(=O)c3ccc(C#Cc4c(N)ncc5ccc(F)cc45)cc3)cc2C(F)(F)F)CC1`, the GI50 in the experiment with 786-0 renal is 0.924 µM; in the experiment with A498 renal, 1.79 µM; in the experiment with EKVX NSCLC, 0.94 µM; with HS 578T breast it was 1.05 µM; with NCI-H226 lung, 1.07 µM; in the experiment on OVCAR-4 ovarian, 1.48 µM. The GI50 is 0.834 µM in the experiment on PC-3 prostate, 1.01 µM with SK-MEL-28 melanoma and 0.878 µM in the experiment on T-47D breast. The TGI in the experiment on 786-0 renal was 1.73 µM; with A498 renal it was 9.71 µM; in the experiment on EKVX NSCLC it was 1.85 µM; in the experiment with HS 578T breast, 3.65 µM; with NCI-H226 lung, 2.6 µM; in the experiment with OVCAR-4 ovarian, 5.83 µM. The TGI in the experiment on PC-3 prostate was determined as 1.61 µM; in the experiment on SK-MEL-28 melanoma, 1.74 µM; in the experiment with T-47D breast it was 1.85 µM.

With `O=C(CCl)N1c2ccccc2Sc2ccc3ccccc3c21`, the GI50 was 1.44 µM with 786-0 renal; 1.73 µM in the experiment on A498 renal; 2.04 µM with HS 578T breast; 2.36 µM in the experiment on NCI-H226 lung; 0.659 µM in the experiment with OVCAR-4 ovarian; 1.47 µM with PC-3 prostate. The GI50 with SK-MEL-28 melanoma was 1.65 µM; in the experiment on SNB-75 CNS, 1.16 µM; in the experiment on T-47D breast, 1.66 µM. For the same compound, the TGI in the experiment with 786-0 renal was 3.03 µM; with A498 renal it was 3.31 µM; in the experiment on HS 578T breast, 6.56 µM; with NCI-H226 lung, 5.5 µM; in the experiment with OVCAR-4 ovarian, 2.9 µM; in the experiment with PC-3 prostate, 3.06 µM. Besides, the TGI was 3.01 µM in the experiment with SK-MEL-28 melanoma, 2.4 µM in the experiment with SNB-75 CNS and 3.69 µM in the experiment with T-47D breast.

For the compound `CCCCCCCCCCCCSC(=N)N`, the GI50 in the experiment with 786-0 renal is 15.3 µM; in the experiment on A498 renal, 15.3 µM; in the experiment on HS 578T breast, 17.3 µM; in the experiment with NCI-H226 lung it was 18.5 µM; with OVCAR-4 ovarian, 7.93 µM; in the experiment on PC-3 prostate it was 9.13 µM. The GI50 in the experiment on SK-MEL-28 melanoma was 13.7 µM; with SNB-75 CNS, 16.2 µM; in the experiment with T-47D breast, 2.03 µM. In addition, the TGI worked out at 33.9 µM in the experiment with 786-0 renal; 31.4 µM with A498 renal; 38.8 µM with HS 578T breast; 44.5 µM with NCI-H226 lung; 27.9 µM in the experiment with OVCAR-4 ovarian; 23 µM in the experiment on PC-3 prostate. Also, the TGI was determined as 27.9 µM with SK-MEL-28 melanoma, 35 µM with SNB-75 CNS and 4.34 µM in the experiment on T-47D breast.

As for `COc1cc2c[n+](C)c3c4ccccc4ccc3c2cc1OC` (tested in a mixture with another compound), the GI50 in the experiment on 786-0 renal was 4.53 µM; in the experiment on EKVX NSCLC, 1.47 µM; with HS 578T breast, 3.35 µM; with OVCAR-4 ovarian it was 4.04 µM; in the experiment on SK-MEL-28 melanoma it was 2.89 µM; in the experiment with SNB-75 CNS, 3.11 µM. In the experiment with T-47D breast, the GI50 was 4.68 µM. In addition, the TGI came out at 39.5 µM with 786-0 renal; 41.8 µM in the experiment with EKVX NSCLC; 18.4 µM in the experiment on HS 578T breast; 33 µM with NCI-H226 lung; 43.2 µM in the experiment on OVCAR-4 ovarian; 20.1 µM in the experiment with PC-3 prostate. Also, the TGI was 8.22 µM and 18.6 µM in the experiment with SK-MEL-28 melanoma; 8.49 µM and 15 µM with SNB-75 CNS; 63.3 µM with T-47D breast.

On to `COc1ccc2c(c1)C(=O)/C(=C/c1ncc([N+](=O)[O-])n1C)O2`, for which the GI50 in the experiment with 786-0 renal is 1.51 µM; in the experiment on A498 renal it was 1.42 µM; in the experiment with HS 578T breast, 0.74 µM; with NCI-H226 lung it was 2.09 µM; with OVCAR-4 ovarian it was 2.27 µM; in the experiment with PC-3 prostate, 1.25 µM. In addition, the figures for the GI50 in the experiment on SK-MEL-28 melanoma, in the experiment with SNB-75 CNS and in the experiment with T-47D breast were 0.317 µM, 1.12 µM and 4.2 µM, respectively. Also, the TGI is 5.07 µM in the experiment with 786-0 renal; 2.98 µM in the experiment with A498 renal; 10.9 µM in the experiment on HS 578T breast; 5.3 µM in the experiment on NCI-H226 lung; 7.12 µM in the experiment on OVCAR-4 ovarian; 5.46 µM with PC-3 prostate. Also, the TGI in the experiment with SK-MEL-28 melanoma was 1.91 µM; in the experiment with SNB-75 CNS, 2.63 µM; with T-47D breast it was above 100 µM.
